Reference: patent US9707267B2, “Beta-turn peptidomimetic cyclic compounds for treating dry eye” (Mimetogen Pharmaceuticals, Inc., priority 2008, dated 2017)
Marks after values point to notes of the source that are not given here.

What was measured:
[1] = tested on: Scopolamine Induced Rat Dry Eye Model; assay: Scopolamine induced rat dry eye model, tear break-up time (Example 5); assay type: in vivo; conditions: for Tear Break-Up Time: ± SD
Description: (§1) Dry eye was induced using scopolamine hydrobromide (Sigma-Aldrich, St. Louis, Mo.), which was continuously and systemically delivered to the animals via an osmotic pump (2ML4 Alzet®; CedarLane, Burlington, Ontario) filled with scopolamine and implanted subcutaneously in the mid dorsal area between the scapulae. Scopolamine was delivered for a twenty-eight day period at 12.5 mg/day, which translated to 30.0±1.5 mg/kg via osmotic pump.
(§2) Treatments for G2-G6 continued daily for seventeen days (up to an including day twenty-one). Thereafter, treatments were terminated but the study continued for another week. During treatment, each animal was anesthetized in an isoflurane chamber. Once asleep, each animal received a 5 μL topical instillation of test article into the lower conjunctival sac of both eyes using a calibrated micropipette. If a clinical endpoint was also being tested, the test article was topically instilled at the end of the testing.
Tear break-up times were tested on day 13 (after 8 daily treatments), day 21 (after 16 daily treatments), and day 28 (after treatment was stopped for 7 days). TBUT was evaluated by instillation of 10 μL sodium fluorescein solution (0.2% in sterile saline) in the upper conjunctival sac of the anaesthetized animal. The lids were blinked manually to distribute the fluorescein with the tear film. Under the cobalt blue light of a portable slit lamp ophthalmoscope (Reichert Ophthalmic Instruments, Depew, N.Y.), the eye was held open and the time until one or more black streaks appeared in the precorneal tear film was recorded. For each eye, a minimum of triplicate readings were made with fresh fluorescein solution.

[2] = tested on: Scopolamine Induced Rat Dry Eye Model; assay: Scopolamine induced rat dry eye model, corneal staining (Example 5); assay type: in vivo; conditions: for Corneal Staining: score 0 to 4, ± SD
Description: as §1, §2
Immediately following TBUT assessment, the clinical signs of corneal dryness were evaluated by fluorescein staining of the cornea and was tested on day 13 (after 8 daily treatments), day 21 (after 16 daily treatments), and day 28 (after treatment was stopped for 7 days). A drop of a 0.2% sodium fluorescein solution made up in sterile saline was instilled in the upper conjunctival sac of the anaesthetized animal. The cornea was thereafter observed under blue light using a Portable Slit Lamp ophthalmoscope with blue cobalt filter (Reichert Ophthalmic Instruments, Depew, N.Y.) two to three minutes after fluorescein instillation. For each animal, the punctate fluorescein-stained area of the cornea was recorded in a masked fashion. The score of this test was graded from 0 to 4, where 0 is equal to no staining, 1 is less than 25% surface staining, 2 is 25-50% surface staining, 3 is 50-75% surface staining, and 4 is greater than 75% surface staining.

[3] = tested on: rat conjunctival goblet cells; assay: Glycoconjugate secretion from rat conjunctival goblet cells, ELLA (Example 1); assay type: cell-based; conditions: 2 hours, mean±sem
Description: Cells derived from the explants were grown in RPMI 1640 supplemented with 10% fetal bovine serum (FBS) and penicillin (100 U/mL)/streptomycin (100 μg/mL) at 37° C. in a humidified 5% CO2-atmosphere for seventy-two hours. Contaminating nongoblet cells were removed by scraping them from the plate. During this time, goblet cells migrated from the pieces and began to proliferate. After one week, the goblet cells were trypsinized and plated in twenty-four well culture plates with RPMI-1640 media supplemented with 10% FBS.
To measure glycoconjugate secretion, the conjunctival goblet cells were grown to confluence and were serum deprived for two hours before addition of nerve growth factor (NGF), carbachol (Cch), compound D3, compound 3Aa and compound 3Ak for two hours. Compounds D3, 3Aa and 3Ak were administered at concentrations of 30 μm (micromolar), 10 μM, 1 μM and 0.3 μM. The vehicle used to dissolve the compounds, dimethyl sulfoxide (DMSO) was also included. DMSO was used as the basal control for the 30 μM concentration of compound, which was at 0.1% (v/v). The cholinergic agonist carbachol (Cch), added at 100 μM (micromolar), was a positive control for glycoconjugate secretion. The amount of glycoconjugate secreted into the media was measured by enzyme-linked lectin assay (ELLA). The media were collected and analyzed for amount of the lectin-detectable glycoconjugates, including mucins. The amount of secretion was measured by using the lectin UEA-I which is specific for rat conjunctival goblet cell mucins. Biotinylated UEA-I lectin and alkaline phosphatase-labeled streptavidin were used as described in Rios, J. D., et al., “Role of Neurotrophins and Neurotrophin Receptors in Rat Conjunctival Goblet Cell Secretion and Proliferation, Ophthalmology & Visual Science, 48: 1543-1551 (2007), the entire content of which is incorporated herein by reference. The cells were removed and sonicated, and the cell homogenate was analyzed for the total amount of protein by using the Bradford protein assay. […] Glycoconjugate secretion was expressed as the increase (x-fold) over basal.
Data for CGC glycoconjugate secretion and proliferation were expressed as the increase (x-fold) above basal value, which was standardized to 1.0. For example, for the 0.3 μM (micromolar), 1 μM and 10 μM doses, the CGC glycoconjugate secretion and proliferation were expressed as test compound over untreated cells. For the 30 μM dose, the CGC glycoconjugate secretion and proliferation were expressed as test compound over DMSO untreated cells. Results are expressed as the mean±sem.

[4] = 0.4% topical 1× daily Days 5-21, Day 13
[5] = 0.4% topical 1× daily Days 5-21, Day 21
[6] = 0.4% topical 1× daily Days 5-21, Day 28 (7 days after treatment stopped)
[7] = 1% dose vs untreated and saline control groups
[8] = 1.0% topical 1× daily Days 5-21, Day 21
[9] = 1.0% topical 1× daily Days 5-21, Day 28 (7 days after treatment stopped)
[10] = 2.5% topical 1× daily Days 5-21, Day 13
[11] = 2.5% topical 1× daily Days 5-21, Day 21
[12] = 2.5% topical 1× daily Days 5-21, Day 28 (7 days after treatment stopped)
[13] = 0.00053% topical 1× daily Days 5-21, Day 13
[14] = 0.00053% topical 1× daily Days 5-21, Day 21
[15] = 0.00053% topical 1× daily Days 5-21, Day 28 (7 days after treatment stopped)

## NCCCC[C@@H]1NC(=O)[C@H](CCC(=O)O)NC(=O)c2cc([N+](=O)[O-])ccc2OCCC(C(=O)NCC(=O)O)NC1=O (stereo partly drawn) [Compound D3]
[1]; [4]
  Tear Break-Up Time: 4.5 ± 1.7^b seconds
[1]; [5]
  Tear Break-Up Time: 4.4 ± 1.7 s
[1]; [6]
  Tear Break-Up Time: 4.3 ± 0.8 s
[1]; [7]
  changes in TBUT at Day 28 as compared to Day 13 (in words): statistically significantly improved TBUT
[1]; [8]
  Tear Break-Up Time: 5.1 ± 1.9 s
[1]; [9]
  Tear Break-Up Time: 6.4 ± 1.2 s
[1]; [10]
  Tear Break-Up Time: 7.0 ± 2.3 s
[1]; [11]
  Tear Break-Up Time: 5.8 ± 2.1 s
[1]; [12]
  Tear Break-Up Time: 5.0 ± 1.3 s
[2]; [4]
  Corneal Staining: 2.7 ± 0.4 Score
[2]; [5]
  Corneal Staining: 2.1 ± 0.4 Score
[2]; [6]
  Corneal Staining: 2.4 ± 0.7 Score
[2]; [7]
  changes in corneal staining at Day 28 as compared to Day 13 (in words): statistically significantly improved corneal staining
[2]; 1.0% topical 1× daily Days 5-21, Day 13
  Corneal Staining: 2.8 ± 0.6 Score
[2]; [8]
  Corneal Staining: 2.3 ± 0.6 Score
[2]; [9]
  Corneal Staining: 1.3±0.3 Score
[2]; [10]
  Corneal Staining: 2.1 ± 0.7 Score
[2]; [11]
  Corneal Staining: 2.1 ± 1.0 Score
[2]; [12]
  Corneal Staining: 2.6 ± 0.4 Score
[3]; 0.3 μM
  CGC glycoconjugate secretion: 1.3±0.2 fold above basal
[3]; 1 μM
  CGC glycoconjugate secretion: 1.6±0.2 fold above basal
[3]; 10 μM
  CGC glycoconjugate secretion: 1.6±0.3 fold above basal
[3]; 30 μM, over DMSO basal
  CGC glycoconjugate secretion: 1.7±0.7 fold above basal

## NGF: nerve growth factor (recombinant human), positive control
[1]; [13]
  Tear Break-Up Time: 5.2 ± 1.6 s
[1]; [14]
  Tear Break-Up Time: 4.7 ± 0.8 s
[1]; [15]
  Tear Break-Up Time: 4.2 ± 0.8 s
[2]; [13]
  Corneal Staining: 2.6 ± 0.5 Score
[2]; [14]
  Corneal Staining: 2.3 ± 0.6 Score
[2]; [15]
  Corneal Staining: 2.2 ± 0.3 Score
[3]; NGF, concentration not given
  CGC glycoconjugate secretion: 1.3±0.1 fold above basal
